Source: patent publication US6737383B1, “Herbicidal oxadiazolidines” (priority 1999, dated 2004)

Columns and labels:
blackgrass = assay: Test B pre/postemergence blackgrass; format: in vivo, Alopecurus myosuroides
Outline: (§1)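 Herbicidal effect was estimated by eye on a ten-point control scale after plants spent twelve to sixteen days in a greenhouse following soil or foliar treatment. Foliar sprays targeted plants at one to four leaves; all doses were formulated in a non-phytotoxic solvent with surfactant.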

surinam grass = assay: Test B pre/postemergence surinam grass; format: in vivo, Brachiaria decumbens
Outline: as §1

cocklebur = assay: Test B pre/postemergence cocklebur; format: in vivo, Xanthium strumarium
Outline: as §1

corn = assay: Test B pre/postemergence corn; format: in vivo, Zea mays
Outline: as §1

crabgrass = assay: Test B pre/postemergence crabgrass; format: in vivo, Digitaria sanguinalis
Outline: as §1

giant foxtail = assay: Test B pre/postemergence giant foxtail; format: in vivo, Setaria faberii
Outline: as §1

pigweed = assay: Test B pre/postemergence pigweed; format: in vivo, Amaranthus retroflexus
Outline: as §1

rape = assay: Test B pre/postemergence rape; format: in vivo, Brassica napus
Outline: as §1

soybean = assay: Test B pre/postemergence soybean; format: in vivo, Glycine max
Outline: as §1

sugar beet = assay: Test B pre/postemergence sugar beet; format: in vivo, Beta vulgaris
Outline: as §1

wheat = assay: Test B pre/postemergence wheat; format: in vivo, Triticum aestivum
Outline: as §1

purple nutsedge = assay: Test B pre/postemergence purple nutsedge; format: in vivo, Cyperus rotundus
Outline: as §1

rice = assay: Test B flood test rice; format: in vivo, Oryza sativa
Outline: (§2)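 Plants were grown to the 2-leaf stage before treatment with test chemical, then held in a greenhouse for twelve to sixteen days. Injury was visually rated against untreated controls on a 0–10 scale, where 0 is no effect and 10 is complete control.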

smallflower flatsedge = assay: Test B flood test smallflower flatsedge; format: in vivo, Cyperus difformis
Outline: as §2

duck salad = assay: Test B flood test duck salad; format: in vivo, Heteranthera limosa
Outline: as §2

bamyardgrass = assay: Test B flood test barnyardgrass; format: in vivo, Echinochloa crus-galli
Outline: as §2

[1] = Postemergence, Rate 62 g/ha, scale 0 to 10, 0 is no effect, 10 is complete control
[2] = Postemergence, Rate 125 g/ha, scale of 0 to 10 where 0 is no effect and 10 is complete control
[3] = Postemergence, Rate 250 g/ha, scale 0 to 10, 0 no effect, 10 complete control
[4] = Preemergence, Rate 62 g/ha, scale 0 to 10 (0 no effect, 10 complete control)
[5] = Preemergence, Rate 125 g/ha, scale 0 to 10 (0 no effect, 10 complete control)
[6] = Preemergence, Rate 250 g/ha, scale of 0 to 10 where 0 is no effect and 10 is complete control
[7] = Preemergence, Rate 500 g/ha, scale 0 (no effect) to 10 (complete control)
[8] = Rate 500 g/ha, Postemergence, scale 0 to 10, 0 no effect, 10 complete control
[9] = Rate 250 g/ha, Postemergence, scale 0 to 10, 0 is no effect, 10 is complete control
[10] = Postemergence (flood test species), Rate 125 g/ha, scale of 0 to 10 where 0 is no effect and 10 is complete control
[11] = Rate 250 g/ha, Postemergence (flood test), scale 0 to 10, 0 is no effect, 10 is complete control
[12] = Rate 500 g/ha, listed under Postemergence (flood test species), scale 0 to 10, 0 no effect, 10 complete control
[13] = flood test, listed under Postemergence, Rate 250 g/ha, scale 0 to 10, 0 no effect, 10 complete control

CC(C)N(C(=O)n1oc(=O)n(-c2cccc3c2CCCC3)c1=O)c1ccc(F)cc1 [Compound 90]
6: Blackgrass plant response rating (blackgrass; [7]) | Redroot pigweed plant response rating (pigweed; [7]) | Plant response rating, Redroot pigweed (pigweed; [9])
7: Redroot pigweed plant response rating (pigweed; [8])
4: Crabgrass plant response rating (crabgrass; [8]) | Giant foxtail plant response rating (giant foxtail; [4]) | Soybean plant response rating (soybean; [1]) | Soybean plant response rating (soybean; [2]) | Plant response rating, Soybean (soybean; [9]) | Soybean plant response rating (soybean; [8])
10: Giant foxtail plant response rating (giant foxtail; [7])
0: Blackgrass plant response rating (blackgrass; [1]) | Blackgrass plant response rating (blackgrass; [2]) | Blackgrass plant response rating (blackgrass; [3]) | Blackgrass plant response rating (blackgrass; [4]) | Plant response rating, Blackgrass (blackgrass; [5]) | Blackgrass plant response rating (blackgrass; [8]) | B. signalgrass plant response rating (surinam grass; [1]) | B. signalgrass plant response rating (surinam grass; [3]) | B. signalgrass plant response rating (surinam grass; [4]) | Plant response rating, B. signalgrass (surinam grass; [5]) | B. signalgrass plant response rating (surinam grass; Rate 125 g/ha, Postemergence, scale 0 to 10, 0 no effect, 10 complete control) | B. signalgrass plant response rating (surinam grass; Rate 500 g/ha, Postemergence, scale of 0 to 10 where 0 is no effect and 10 is complete control) | Cocklebur plant response rating (cocklebur; [4]) | Plant response rating, Cocklebur (cocklebur; [5]) | Plant response rating, Cocklebur (cocklebur; [6]) | Cocklebur plant response rating (cocklebur; [7]) | Corn plant response rating (corn; [1]) | Corn plant response rating (corn; [2]) | Corn plant response rating (corn; [3]) | Corn plant response rating (corn; [4]) | Plant response rating, Corn (corn; [5]) | Plant response rating, Corn (corn; [6]) | Corn plant response rating (corn; [7]) | Corn plant response rating (corn; [8]) | Crabgrass plant response rating (crabgrass; [4]) | Giant foxtail plant response rating (giant foxtail; [1]) | Giant foxtail plant response rating (giant foxtail; [2]) | Redroot pigweed plant response rating (pigweed; [4]) | Plant response rating, Redroot pigweed (pigweed; [5]) | Plant response rating, Redroot pigweed (pigweed; [6]) | Rape plant response rating (rape; [1]) | Rape plant response rating (rape; [2]) | Rape plant response rating (rape; [3]) | Rape plant response rating (rape; [4]) | Plant response rating, Rape (rape; [5]) | Plant response rating, Rape (rape; [6]) | Rape plant response rating (rape; [7]) | Rape plant response rating (rape; [8]) | Soybean plant response rating (soybean; [4]) | Plant response rating, Soybean (soybean; [5]) | Plant response rating, Soybean (soybean; [6]) | Soybean plant response rating (soybean; [7]) | Sugarbeets plant response rating (sugar beet; [1]) | Sugarbeets plant response rating (sugar beet; [2]) | Sugarbeets plant response rating (sugar beet; [4]) | Plant response rating, Sugarbeets (sugar beet; [5]) | Plant response rating, Sugarbeets (sugar beet; [6]) | Sugarbeets plant response rating (sugar beet; [7]) | Wheat plant response rating (wheat; [1]) | Wheat plant response rating (wheat; [2]) | Wheat plant response rating (wheat; [4]) | Plant response rating, Wheat (wheat; [5]) | Plant response rating, Wheat (wheat; [6]) | Wheat plant response rating (wheat; [7]) | Plant response rating, Wheat (wheat; [9]) | Wheat plant response rating (wheat; [8]) | Nutsedge plant response rating (purple nutsedge; [1]) | Nutsedge plant response rating (purple nutsedge; [2]) | Nutsedge plant response rating (purple nutsedge; [3]) | Nutsedge plant response rating (purple nutsedge; [4]) | Plant response rating, Nutsedge (purple nutsedge; [5]) | Plant response rating, Nutsedge (purple nutsedge; [6]) | Nutsedge plant response rating (purple nutsedge; [7]) | Nutsedge plant response rating (purple nutsedge; [8]) | Rice plant response rating (rice; [10]) | Rice plant response rating (rice; [1]) | Plant response rating, Rice (rice; [11]) | Rice plant response rating (rice; [12]) | S. Flatsedge plant response rating (smallflower flatsedge; [10]) | S. Flatsedge plant response rating (smallflower flatsedge; [1]) | Plant response rating, S. Flatsedge (smallflower flatsedge; [11]) | S. Flatsedge plant response rating (smallflower flatsedge; [12]) | Ducksalad plant response rating (duck salad; [10]) | Ducksalad plant response rating (duck salad; [1]) | Ducksalad plant response rating (duck salad; [12]) | Ducksalad plant response rating (duck salad; [13]) | Barnyardgrass plant response rating (bamyardgrass; [1]) | Barnyardgrass plant response rating (bamyardgrass; Rate 125 g/ha, Postemergence section (flood test species), scale 0 to 10, 0 no effect, 10 complete control) | Barnyardgrass plant response rating (bamyardgrass; [12]) | Barnyardgrass plant response rating (bamyardgrass; [13])
8: Plant response rating, Crabgrass (crabgrass; [6]) | Crabgrass plant response rating (crabgrass; [7]) | Plant response rating, Giant foxtail (giant foxtail; [5])
9: Plant response rating, Giant foxtail (giant foxtail; [6])
3: Plant response rating, Blackgrass (blackgrass; [6]) | B. signalgrass plant response rating (surinam grass; [7]) | Cocklebur plant response rating (cocklebur; [2]) | Cocklebur plant response rating (cocklebur; [3]) | Plant response rating, Sugarbeets (sugar beet; [9]) | Sugarbeets plant response rating (sugar beet; [8])
2: Crabgrass plant response rating (crabgrass; [2]) | Crabgrass plant response rating (crabgrass; [3]) | Plant response rating, Crabgrass (crabgrass; [5]) | Redroot pigweed plant response rating (pigweed; [1])
1: Cocklebur plant response rating (cocklebur; [1]) | Crabgrass plant response rating (crabgrass; [1]) | Giant foxtail plant response rating (giant foxtail; [3]) | Giant foxtail plant response rating (giant foxtail; [8])
5: Cocklebur plant response rating (cocklebur; [8]) | Redroot pigweed plant response rating (pigweed; [2])
